These are literature values, as cited in patent US11744998B2, “Drug delivery devices with drug-permeable component and methods” (TARIS Biomedical LLC, priority 2015, dated 2023).

For the data set the following is noted: water at 37° C.

Where a name gives a salt, the structure may show the parent alone.

Regarding `Nc1ccn([C@@H]2O[C@H](CO)[C@@H](O)C2(F)F)c(=O)n1` [gemcitabine HCl], the approximate solubility is reported as roughly 80 mg/mL.

Take `Nc1ccn([C@@H]2O[C@H](CO)[C@@H](O)C2(F)F)c(=O)n1` [gemcitabine base]: the approximate solubility was roughly 15 mg/mL.

With `Cc1ccc(O)c([C@H](CCN(C(C)C)C(C)C)c2ccccc2)c1` [tolterodine tartrate], the approximate solubility was roughly 12 mg/mL.

With `O=C(O[C@H]1C[C@H]2CC[C@@H](C1)[N+]21CCCC1)C(O)(c1ccccc1)c1ccccc1` [trospium chloride], the approximate solubility is given as roughly 500 mg/mL.
